Reference: US20260273072A1, “NOVEL PLK1 DEGRADATION INDUCING COMPOUND” (UPPTHERA, INC., priority 2023, published 2026)

Experiments:
Type in all cases: cell-based
MRC-5 cell line = test: Cell viability assay for MRC-5 cell line (EZ-Cytox); conditions: Homo sapiens, MRC5, 120 h; MRC-5 normal cell line, 5 days, 10000 nM to 1.52 nM; read-out: Activity: IC50 value, cell viability, MRC-5 cell line (Exemplary Compounds)
Procedure: 4. Cell Viability Assay for MRC-5 Cell Line
(1) Culture of MRC-5 Cell Line
The MRC-5 cell line was purchased from KCLB. Passage of cultured cells was maintained within P15.
(2) Treatment of Compounds of the Present Invention
Then, it was cultured in 37° C. CO2 incubator (Thermo Fisher Scientific) for 5 days.
(3) Cytotoxicity Experiment
CO2 incubator for 4 hours.

NCI-H69 cell line = test: Cell viability assay for NCI-H69 cell line (EZ-Cytox); conditions: Homo sapiens, NCI-H69, 120 h; H69 cells, 5 days, 3000 nM to 0.46 nM
Procedure: (§1) 3. Cell Viability Assay for NCI-H69, NCI-H526 Cell Lines
(§2) (1) Culture of NCI-H69, NCI-H526 Cell Lines
(§3) The NCI-H69 (hereafter H69) and NCI-H526 (hereafter H526) cell lines were purchased from KCLB.
(§4) (2) Treatment of Compounds of the Present Invention and Method of Cell Viability Assay
(§5) After treating the compound to each well to make the total volume of 200 μl, it was cultured in a CO2 incubator (Thermo Fisher Scientific) for 5 days. […] The absorbance of the completely cultured sample was measured by setting the wavelength of a plate reader (BMG Labtech) to […], and was measured after shaking for 3 minutes in a plate reader before measurement.
(§6) The results of cell viability for H526 and H69 cell line are shown in Table 3 and Table 4, respectively.
(§7) In Table 3 and Table 4, Activity represents IC50 value of each Exemplary Compound treatment group to H526 and H69 cell line, respectively (A: <30 nM, B: <50 nM, C: <100 nM, D: <200 nM, E: <400 nM).

PLK1 = biological target: T1, PLK1 (Homo sapiens, UniProt P53350); test: Luciferase assay for PLK1 in HeLa LgBit (Plk1-HiBit KI) cell line; conditions: 300 nM compound, luminescence after 9 hours
T1 construct: endogenous in cells; host or cells: HeLa LgBit (Plk1-HiBit KI): HeLa stably expressing LgBit, with a CRISPR/Cas9 knock-in of HiBit at the endogenous PLK1 locus
Procedure: 2. Luciferase Assay for PLK1
(1) Preparation and Culture of HeLa LgBit (Plk1-HiBit KI) Cell Line
A HeLa cell line in which the LgBit vector was transfected and expressed stably was prepared. Then, after constructing gRNA and donor to express the HiBit amino acid sequence behind the C-terminal of the PLK1 gene, which was inherent in the cell, it was inserted into the cell together with a vector capable of expressing CRISPR/Cas9. Only the cells in which the insertion was completed and knock-in had progressed were selected, sub-cultured and used.
For cell culture, DMEM (Gibco), FBS (Gibco), PS (Gibco), […] cell culture dish (SPL), […] cell culture dish (SPL), 96-well culture plate (SPL), PBS pH 7.4 (Gibco), TrypLE™ Express (Gibco), Cell counter (Thermo Fisher Scientific) and 0.4% Trypan Blue Solution (DYNEBIO) were used.
(2) Treatment of Compounds of the Present Invention and Method of Luciferase Assay
In the case of HeLa LgBit (Plk1-HiBit KI), the compounds were treated after being released after thymidine block, and the process was as follows. Thymidine (Sigma-Aldrich) was completely dissolved in ddH2O and used in the experiment. For thymidine block, the products were treated with 2 mM of thymidine and then incubated for 24 hours. For release and chemical treatment, the medium was suctioned and washed with 1×PBS. TrypLE™ (Gibco) was added and incubated in 37° C. CO2 incubator (Thermo Fisher Scientific) for 5 mins. Cells neutralized by adding complete media were counted through a counter. For each well of a 96-well culture plate (SPL), 3.3×10^4 cells and a total medium volume of 150 μl were seeded and incubated in a CO2 incubator.
Each cell line was incubated in a CO2 incubator for 18 hours, and Endurazine (Promega, Cat. No. N257B) was added to each well to make up 4% of the total volume. After adding compounds of Examples in a 96-well white plate (SPL) to a concentration of 300 nM, the wavelength of the plate reader (BMG Labtech, CLARIOstar Plus) was set to 470-480 nm, and then the luminescence was tracked in real time.
In Table 2, Activity represents the ratio of the luminescence value of each Exemplary Compound treatment group to DMSO treatment group (+++: <0.3, ++: <0.5, +: <0.7).

NCI-H526 cell line = test: Cell viability assay for NCI-H526 cell line (EZ-Cytox); conditions: Homo sapiens, NCI-H526, 120 h; H526 cells, 5 days, 3000 nM to 0.46 nM
Procedure: as §1, §2, §3, §4, §5, §6, §7

T1 sequence (P53350 whole entry): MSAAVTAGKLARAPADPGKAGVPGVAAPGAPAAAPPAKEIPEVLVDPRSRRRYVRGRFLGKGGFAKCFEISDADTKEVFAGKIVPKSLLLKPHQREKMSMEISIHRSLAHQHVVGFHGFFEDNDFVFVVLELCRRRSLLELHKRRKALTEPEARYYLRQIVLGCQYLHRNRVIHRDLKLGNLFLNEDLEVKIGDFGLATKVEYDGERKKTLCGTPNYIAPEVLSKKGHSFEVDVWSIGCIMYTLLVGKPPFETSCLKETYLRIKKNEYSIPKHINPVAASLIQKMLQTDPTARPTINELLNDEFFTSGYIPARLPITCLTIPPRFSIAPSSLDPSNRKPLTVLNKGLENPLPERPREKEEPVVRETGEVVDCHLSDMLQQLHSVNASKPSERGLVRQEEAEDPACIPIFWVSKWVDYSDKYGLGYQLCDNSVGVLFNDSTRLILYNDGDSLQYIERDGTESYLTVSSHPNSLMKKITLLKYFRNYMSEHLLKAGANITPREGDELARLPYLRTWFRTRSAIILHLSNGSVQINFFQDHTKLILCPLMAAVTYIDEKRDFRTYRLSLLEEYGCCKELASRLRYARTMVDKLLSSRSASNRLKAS

COc1cc(C(=O)N[C@H]2CC[C@H](CN(C)C3CCN(c4cnc(C5CCC(=O)NC5=O)cc4C)CC3)CC2)ccc1Nc1ncc2c(n1)N(C(C)C)CC(F)(F)C(=O)N2C (stereo partly shown) [Compound 16, 4-((7,7-difluoro-9-isopropyl-5-methyl-6-oxo-6,7,8,9-tetrahydro-5H-pyrimido[4,5-b][1,4]diazepin-2-yl)amino)-N-((1r,4r)-4-(((1-(6-(2,6-dioxopiperidin-3-yl)-4-methylpyridin-3-yl)piperidin-4-yl)(methyl)amino)methyl)cyclohexyl)-3-methoxybenzamide]
IC50 (MRC-5 cell line): > 10000 nM
IC50 (NCI-H69 cell line): < 30 nM
Activity: ratio of the luminescence value of compound treatment group to DMSO treatment group (PLK1): +++ (+++: <0.3)
IC50 (NCI-H526 cell line): < 30 nM

COc1cc(C(=O)NC2CC3(CCN(CC4CCN(c5cnc(C6CCC(=O)NC6=O)cc5C)CC4)CC3)C2)ccc1Nc1ncc2c(n1)N(C1CCCC1)CC(F)(F)C(=O)N2C (stereo not shown) [Compound 17, 4-((9-cyclopentyl-7,7-difluoro-5-methyl-6-oxo-6,7,8,9-tetrahydro-5H-pyrimido[4,5-b][1,4]diazepin-2-yl)amino)-N-(7-((1-(6-(2,6-dioxopiperidin-3-yl)-4-methylpyridin-3-yl)piperidin-4-yl)methyl)-7-azaspiro[3.5]nonan-2-yl)-3-methoxybenzamide]
IC50 (MRC-5 cell line): > 10000 nM
IC50 (NCI-H69 cell line): < 30 nM
Activity: ratio of the luminescence value of compound treatment group to DMSO treatment group (PLK1): +++ (+++: <0.3)
IC50 (NCI-H526 cell line): < 30 nM

COc1cc(C(=O)NC2CC3(CCN(CC4CCN(c5ccc(C6CCC(=O)NC6=O)nc5C)CC4)CC3)C2)ccc1Nc1ncc2c(n1)N(C1CCCC1)CC(F)(F)C(=O)N2C (stereo not shown) [Compound 18, 4-((9-cyclopentyl-7,7-difluoro-5-methyl-6-oxo-6,7,8,9-tetrahydro-5H-pyrimido[4,5-b][1,4]diazepin-2-yl)amino)-N-(7-((1-(6-(2,6-dioxopiperidin-3-yl)-2-methylpyridin-3-yl)piperidin-4-yl)methyl)-7-azaspiro[3.5]nonan-2-yl)-3-methoxybenzamide]
IC50 (MRC-5 cell line): > 10000 nM
IC50 (NCI-H69 cell line): < 30 nM
Activity: ratio of the luminescence value of compound treatment group to DMSO treatment group (PLK1): ++ (++: <0.5)
IC50 (NCI-H526 cell line): < 30 nM

COc1cc(C(=O)NC2CC3(CCN(CC4CCN(c5cnc(C6CCC(=O)NC6=O)cc5C)CC4)CC3)C2)ccc1Nc1ncc2c(n1)N(C(C)C)CC(F)(F)C(=O)N2C (stereo not shown) [Compound 19, 4-((7,7-difluoro-9-isopropyl-5-methyl-6-oxo-6,7,8,9-tetrahydro-5H-pyrimido[4,5-b][1,4]diazepin-2-yl)amino)-N-(7-((1-(6-(2,6-dioxopiperidin-3-yl)-4-methylpyridin-3-yl)piperidin-4-yl)methyl)-7-azaspiro[3.5]nonan-2-yl)-3-methoxybenzamide]
IC50 (MRC-5 cell line): > 10000 nM
IC50 (NCI-H69 cell line): < 30 nM
Activity: ratio of the luminescence value of compound treatment group to DMSO treatment group (PLK1): ++ (++: <0.5)
IC50 (NCI-H526 cell line): < 30 nM

COc1cc(C(=O)NC2CCC(N(C)CC3CCN(c4cnc(C5CCC(=O)NC5=O)cc4F)CC3)CC2)ccc1Nc1ncc2c(n1)N(C1CCCC1)CC(F)(F)C(=O)N2C (stereo not shown) [Compound 20, 4-((9-cyclopentyl-7,7-difluoro-5-methyl-6-oxo-6,7,8,9-tetrahydro-5H-pyrimido[4,5-b][1,4]diazepin-2-yl)amino)-N-((1r,4r)-4-(((1-(6-(2,6-dioxopiperidin-3-yl)-4-fluoropyridin-3-yl)piperidin-4-yl)methyl)(methyl)amino)cyclohexyl)-3-methoxybenzamide]
IC50 (MRC-5 cell line): > 10000 nM
IC50 (NCI-H69 cell line): < 30 nM
Activity: ratio of the luminescence value of compound treatment group to DMSO treatment group (PLK1): +++ (+++: <0.3)
IC50 (NCI-H526 cell line): < 30 nM

COc1cc(C(=O)NN2CCC(CCN3CCN(c4cnc(C5CCC(=O)NC5=O)cc4F)CC3)CC2)ccc1Nc1ncc2c(n1)N(C(C)C)CC(F)(F)C(=O)N2C (stereo not shown) [Compound 21, 4-((7,7-difluoro-9-isopropyl-5-methyl-6-oxo-6,7,8,9-tetrahydro-5H-pyrimido[4,5-b][1,4]diazepin-2-yl)amino)-N-(4-(2-(4-(6-(2,6-dioxopiperidin-3-yl)-4-fluoropyridin-3-yl)piperazin-1-yl)ethyl)piperidin-1-yl)-3-methoxybenzamide]
IC50 (MRC-5 cell line): > 10000 nM
IC50 (NCI-H69 cell line): < 30 nM
Activity: ratio of the luminescence value of compound treatment group to DMSO treatment group (PLK1): +++ (+++: <0.3)
IC50 (NCI-H526 cell line): < 30 nM

COc1cc(C(=O)N[C@H]2C3CN(CC4CCN(c5ccc(NC6CCC(=O)NC6=O)cc5)CC4)C[C@@H]32)ccc1Nc1ncc2c(n1)N(C(C)C)CC(F)(F)C(=O)N2C (stereo partly drawn) [Compound 22, 4-((7,7-difluoro-9-isopropyl-5-methyl-6-oxo-6,7,8,9-tetrahydro-5H-pyrimido[4,5-b][1,4]diazepin-2-yl)amino)-N-((1R,5S,6s)-3-((1-(4-((2,6-dioxopiperidin-3-yl)amino)phenyl)piperidin-4-yl)methyl)-3-azabicyclo[3.1.0]hexan-6-yl)-3-methoxybenzamide]
IC50 (MRC-5 cell line): > 10000 nM
IC50 (NCI-H69 cell line): < 50 nM
Activity: ratio of the luminescence value of compound treatment group to DMSO treatment group (PLK1): +++ (+++: <0.3)
IC50 (NCI-H526 cell line): < 50 nM

COc1cc(C(=O)N[C@H]2[C@@H]3CN(CCN4CCN(c5ccc(NC6CCC(=O)NC6=O)cc5)CC4)C[C@@H]32)ccc1Nc1ncc2c(n1)N(C(C)C)CC(F)(F)C(=O)N2C (stereo partly drawn) [Compound 23, 4-((7,7-difluoro-9-isopropyl-5-methyl-6-oxo-6,7,8,9-tetrahydro-5H-pyrimido[4,5-b][1,4]diazepin-2-yl)amino)-N-((1R,5S,6s)-3-(2-(4-(4-((2,6-dioxopiperidin-3-yl)amino)phenyl)piperazin-1-yl)ethyl)-3-azabicyclo[3.1.0]hexan-6-yl)-3-methoxybenzamide]
IC50 (MRC-5 cell line): > 10000 nM
IC50 (NCI-H69 cell line): < 50 nM
Activity: ratio of the luminescence value of compound treatment group to DMSO treatment group (PLK1): ++ (++: <0.5)
IC50 (NCI-H526 cell line): < 30 nM

COc1cc(C(=O)N[C@H]2[C@@H]3CN(CCC4CCN(c5ccc(NC6CCC(=O)NC6=O)cc5)CC4)C[C@@H]32)ccc1Nc1ncc2c(n1)N(C(C)C)CC(F)(F)C(=O)N2C (stereo partly drawn) [Compound 24, 4-((7,7-difluoro-9-isopropyl-5-methyl-6-oxo-6,7,8,9-tetrahydro-5H-pyrimido[4,5-b][1,4]diazepin-2-yl)amino)-N-((1R,5S,6s)-3-(2-(1-(4-((2,6-dioxopiperidin-3-yl)amino)phenyl)piperidin-4-yl)ethyl)-3-azabicyclo[3.1.0]hexan-6-yl)-3-methoxybenzamide]
IC50 (MRC-5 cell line): > 10000 nM
IC50 (NCI-H69 cell line): < 100 nM
Activity: ratio of the luminescence value of compound treatment group to DMSO treatment group (PLK1): ++ (++: <0.5)
IC50 (NCI-H526 cell line): < 50 nM

COc1cc(C(=O)NN2C[C@@H]3[C@@H](CCN4CCN(c5ccc(NC6CCC(=O)NC6=O)cc5)CC4)[C@@H]3C2)ccc1Nc1ncc2c(n1)N(C(C)C)CC(F)(F)C(=O)N2C (stereo partly drawn) [Compound 25, 4-((7,7-difluoro-9-isopropyl-5-methyl-6-oxo-6,7,8,9-tetrahydro-5H-pyrimido[4,5-b][1,4]diazepin-2-yl)amino)-N-((1R,5S,6s)-6-(2-(4-(4-((2,6-dioxopiperidin-3-yl)amino)phenyl)piperazin-1-yl)ethyl)-3-azabicyclo[3.1.0]hexan-3-yl)-3-methoxybenzamide]
IC50 (MRC-5 cell line): > 10000 nM
IC50 (NCI-H69 cell line): < 100 nM
Activity: ratio of the luminescence value of compound treatment group to DMSO treatment group (PLK1): ++ (++: <0.5)
IC50 (NCI-H526 cell line): < 30 nM
